Assay results reported in PMC6645542 (PLoS ONE, 2019).

What was measured:
[1] = biological target: Thioredoxin glutathione reductase from T. crassiceps (TcTGR) (Taenia crassiceps, UniProt A0ABR4QG96); assay: GSSG-reductase activity of TGR (NADPH oxidation at 340 nm); type: biochemical; details: for Recovered activity (%): B: TGR incubated with COP for 5 min, then thiol 50 μM added, control = 100%; for inhibition at 200 µM: 200 μM of the compound, 3 min incubation (Fig 1a), read-out: maximal inhibition of GSSG reductase activity of TcTGR; for IC50: curcumin degradation products, 3 min incubation in TE buffer, 100 μM NADPH, 67 μM GSSG, read-out: IC50, inhibition of GSSG reductase activity of TcTGR
Protocol: TGR activity was monitored spectrophotometrically by following the decrease in absorbance at 340 nm (ɛ = 6.22 mM^-1cm^-1) due to its NADPH-dependent ability to reduce GSSG [35, 36]. To determine the inhibitory ability of either curcuminoids, curcumin degradation products or curcumin oxidation products we used the following protocols: a) Curcuminoids. An enzyme aliquot (30 μL) was incubated in the presence of 1 μM NADPH; then, a 1.5 μL aliquot of the above mixture was added to 50 μM of the corresponding curcuminoid solution in TE buffer. At different incubation times, a small aliquot containing both NADPH and GSSG was added to start the reaction in a total volume of 600 μL. The enzyme activity of a reaction mixture prepared in the absence of any curcuminoid was taken as 100% relative activity b) Curcumin degradation products (CDP). The enzyme was treated as above and 1.5 μL aliquot of the mixture was added to the corresponding CDP solution at a selected concentration followed by a 2 min incubation period. Then, both NADPH and GSSG were added to start the reaction. The enzyme activity of a reaction mixture prepared in the absence of any CDP was taken as 100% relative activity. c) Curcumin oxidation products (COP). Curcumin final concentration 50 μM was incubated 15 min in TE buffer. Then, both TGR and the substrates NADPH and GSSG were added to start the reaction. Final concentrations of enzyme, NADPH and GSSG were 13 nM, 100 μM and 70 μM respectively. A unit of enzyme activity is defined as the amount of protein needed to oxidize one μmol NADPH per minute at 25°C.

[2] = Spectrophotometrical analysis of stability (absorbance at 426 nm / absorption spectrum); type: physicochemical
Protocol: Raúl Enriquez (Instituto de Química, UNAM, México). Curcumin 5 mM was dissolved in DMSO and stored at room temperature. […] The protein concentration of the purified enzyme was determined spectrophotometrically by reading the absorbance at 460 nm (ɛ = 11.3 mM^-1cm^-1) due to its FAD content. The absorption spectrum of curcuminoids (curcumin, DMC and BDMC) and the different curcumin degradation products (CDP) FM, V, VA, F-Ad, 4VG, and FA were recorded in a UV/Vis Beckman DU 730 Spectrophotometer. […] The detection of the curcumin oxidation products (COP) was performed by following the changes in the absorption spectrum immediately after a 100-fold dilution of the curcumin stock solution in TE buffer.

[3] = set-up: method as in PMID 25806475; details: cited from earlier work

Compound: N[C@@H](CCC(=O)N[C@@H](CS)C(=O)NCC(=O)O)C(=O)O [GSH, reduced glutathione, reference compound]
- Recovered activity (%) [1]: 14.7 ± 1.0%

Compound: COc1cc(/C=C/C(O)=C/C(=O)/C=C/c2ccc(O)cc2)ccc1O [DMC, demethoxycurcumin]
- inhibition at 200 µM [1]: 65%
- effect of NADPH on the stability ([2]; 50 μM in TE buffer, 100 μM NADPH, absorbance at 426 nm): no effect
- time after dilution at which the final product of oxidative transformation was achieved [3]: 48 h

Compound: COc1cc(/C=C/C(=O)O)ccc1O [ferulic acid]
- IC50 [1]: 465 µM

Compound: COc1cc(/C=C/C=O)ccc1O [ferulic aldehyde]
- IC50 [1]: 180 µM

Compound: O=C(/C=C/c1ccc(O)cc1)CC(=O)/C=C/c1ccc(O)cc1 [BDMC, bis-demethoxycurcumin]
- inhibition of the enzyme activity ([1]; 50 μM, diluted 30 min in TE buffer before enzyme, 30 min incubation with TGR (Fig 3)): no inhibition was observed
- inhibition at 200 µM [1]: 100%

Compound: COc1cc(/C=C/C(=O)CC(=O)/C=C/c2ccc(O)c(OC)c2)ccc1O [curcumin, (1E, 6E)-1,7-bis (4-hydroxy-3-methoxyphenyl)-1,6-heptadiene-3,5-dione]
- dilution time at which the maximal inhibitory ability was reached ([1]; 50 μM diluted in TE buffer in the absence of NADPH (Fig 4a)): 15 min
- inhibition of the enzyme activity ([1]; 50 μM diluted in TE buffer in the presence of 100 μM NADPH (Fig 4b)): no inhibition
- remaining activity at 50 µM ([1]; 50 μM diluted in TE buffer without NADPH, after 4 h incubation (Fig 4a grey line), read-out: activity relative to control): 80%
- GSSG reductase activity ([1]; 50 μM, diluted 30 min in TE buffer before enzyme, 1 min incubation with the enzyme (Fig 3a)): no GSSG reductase activity was detected
- inhibition at 200 µM [1]: 10%
- drop in the absorbance at 426 nm ([2]; 50 μM in TE buffer pH 7.8, 30 min incubation, in the absence of NADPH): 82%
- diminution in the absorbance at 426 nm ([2]; 50 μM in TE buffer pH 7.8, 30 min incubation, in the presence of 100 μM NADPH): 25%

Compound: O[C@@H](CS)[C@@H](O)CS (racemic) [DTT, 1,4-Dithio-DL-threitol, reference compound]
- Recovered activity (%) [1]: 20.3 ± 1.1%
